This test deals with CEM cells HIV-1 protection, formazan growth assay. In words: NCI AIDS Antiviral Assay. To be noted: for IC50: measured here: growth of uninfected CEM cells. In outline:
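Category rules: moderately active means at least 50% protection on retest, and confirmed active means 100% protection reproducibly. The underlying data came from a formazan growth assay in HIV-1-infected CEM cells.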

The structures appear in SMILES notation. Active and inactive are the calls of the source.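 How the source made its calls: active means compounds giving half or more protection of infected cells from virus-caused growth loss, again on retest; inactive means the rest.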

These results are taken from PubChem BioAssay AID179 (DTP/NCI, 2004).

As to `O=C(CN1CCN(c2ccccn2)CC1)N1CCCn2c1nc1ccccc1c2=O`, the EC50 is greater than 200 µM and the IC50 is greater than 200 µM.
On to `O=C(O)Cc1cc(=O)[nH]c2c1/C(=N/O)CCC2`, for which the result was inactive.
As for `COC(=O)C(/C(=N/N)C(=O)Nc1cc(Cl)ccc1Cl)c1nc2ccc([N+](=O)[O-])cc2[nH]c1=O` (centres undefined), the EC50 was greater than 138 µM and the IC50 was greater than 138 µM.
With `O=C1[C@@H]2C(c3ccccc3[N+](=O)[O-])=[N+](c3ccccc3)O[C@@H]2C(=O)N1c1ccc(Cc2ccc(N3C(=O)[C@H]4C(c5ccccc5[N+](=O)[O-])=[N+](c5ccccc5)O[C@H]4C3=O)cc2)cc1`, the EC50 is greater than 8.51 µM and the concentration for half-maximal inhibition (IC50) was greater than 8.51 µM.
For the compound `C/C1=C\C(=O)OC2CC(CCC(C)/C=C/CC1)OC(O)(C1CSC(=O)N1)C2` (centres undefined), the EC50 was greater than 129 µM and the IC50 came to 3.98 µM.
For `COC(=O)c1c(C(=O)OC)c2ccccn2c1-c1cc(OC)c(Br)c(=O)o1`, the EC50 is greater than 200 µM and the IC50 was greater than 200 µM.
Consider `Clc1ccc2nc3c(c(-c4ccccc4)nn3-c3ccccc3)c(-c3ccccc3)c2c1`, for which the EC50 was greater than 100 µM and the half-maximal inhibitory concentration (IC50) is greater than 100 µM.
With `CCOC(=O)[C@@H]1[C@@H]2NC(=O)N[C@@]1(C)Oc1ccccc12`, the EC50 is greater than 200 µM and the IC50 was greater than 200 µM.
In the case of `CSc1n[nH]c(NC(=O)c2ccccc2Br)n1`, the EC50 was greater than 575 µM and the concentration for half-maximal inhibition (IC50) was found to be 427 µM.
On to `O=C(N=S(NC(=O)c1ccccc1)C(Cl)(Cl)Cl)c1ccccc1` (centres undefined), for which the EC50 was greater than 44.7 µM and the IC50 is 16.6 µM.
In the case of `CC(C)(C)c1ccc(O)c(C(c2ccc([N+](=O)[O-])cc2)c2cc(C(C)(C)C)ccc2O)c1`, the EC50 is greater than 200 µM and the IC50 amounted to 3.55 µM.
For `CO[C@H]1SC[C@H](OC(C)=O)[C@H](OC(C)=O)[C@H]1OC(C)=O`, the EC50 is greater than 200 µM and the IC50 was greater than 200 µM.
For the compound `Cc1cn(CC(=O)NCCCCO)c(=O)[nH]c1=O`, the EC50 was greater than 200 µM and the half-inhibitory concentration (IC50) is greater than 200 µM.
Turning to `CCN(CC)CCNC(=O)C(O)(c1ccccc1)c1ccccc1`, the EC50 is greater than 200 µM and the concentration for half-maximal inhibition (IC50) was greater than 200 µM.
Consider `COC(=O)C1Cc2c([nH]c3ccccc23)[C@H](CC(C)C)N1` (some centres undefined), for which the outcome was inactive.
In the case of `O=C(O)[C@@H]1CSC(C(O)CO)N1` (some centres undefined), the EC50 was greater than 200 µM and the half-maximal inhibitory concentration (IC50) is greater than 200 µM.
Turning to `CC1(C)CNC[C@@](C)(O)C(=O)[N-]C(C)(C)CNC[C@](C)(O)C(=O)[N-]1.[Ni+2]`, the EC50 is greater than 200 µM and the 50% inhibitory concentration (IC50) was 120 µM.
On the same counts, the results for `C/C(O)=C/c1nc2ccccc2[nH]1` are greater than 1450 µM and 1260 µM.
As for `CC1=CC(C/C(C)=C/COc2ccc3ccc(=O)oc3c2)OC1=O` (centres undefined), the EC50 was greater than 3.24 µM and the half-maximal inhibitory concentration (IC50) was greater than 3.24 µM.
Take `O=C(O)C1=CC(=C(c2ccc(O)c(C(=O)O)c2)c2ccc(O)c(C(=O)O)c2)C=CC1=O`: the EC50 is greater than 1660 µM and the IC50 is greater than 1660 µM.
On to `Nc1nc(N)nc(-c2cccs2)n1`, for which the EC50 is greater than 200 µM and the IC50 was greater than 200 µM.
For the compound `O=C(COc1ccc(OCC(=O)N2C(=O)CC(=O)N(c3ccc(Cl)cc3)C2=S)cc1)N1C(=O)CC(=O)N(c2ccc(Cl)cc2)C1=S`, the EC50 was greater than 200 µM and the IC50 came out at 42.7 µM.
In the case of `COc1cccc(/C=C2\S/C(=N/Nc3nc(-c4ccc([N+](=O)[O-])cc4)cs3)NC2=O)c1O`, the EC50 is greater than 200 µM and the IC50 came out at 29.5 µM.
With `O=C(O)CNC(=O)OCCCCOC(=O)NCC(=O)O`, the EC50 was greater than 851 µM and the IC50 is greater than 851 µM.
Turning to `Oc1ccc(C2O[C@H](c3ccc(O)cc3)C(c3cc(O)cc(O)c3)C2c2cc(O)cc3c2C(c2cc(O)cc4c2C(c2cc(O)cc(O)c2)[C@H](c2ccc(O)cc2)O4)[C@@H](c2ccc(O)cc2)O3)cc1` (some centres undefined), the EC50 was 36.3 µM and the IC50 was 214 µM.
On the same counts, the results for `c1ccc2[nH]c(C3CCCCO3)nc2c1` (centres undefined) are greater than 200 µM and greater than 200 µM.
On the same counts, the results for `O=S(=O)(O)C(=Nc1cccc(Cc2ccccc2)c1)Nc1cccc(Cc2ccccc2)c1` are greater than 200 µM and 14.8 µM.
With `C/C(=C\CNc1ncnc2c1ncn2CCC#N)CO`, the EC50 is greater than 200 µM and the IC50 was greater than 200 µM.
For `COC(=O)[C@@H]1[C@H]2C[C@@H]3c4[nH]c5ccccc5c4CCN3C[C@@H]2CC[C@@H]1O`, the outcome was inactive.
`CCCc1cc(=O)oc2c3c(c4c(c12)OC(N)=C(C#N)C4c1ccccc1)O[C@H](C)[C@@H](C)C3=O` (some centres undefined): the EC50 was greater than 200 µM and the IC50 came out at 8.71 µM.
On to `CCN1C(=O)C(N=[N+]=[N-])(c2ccccc2)C(=O)c2ccccc21` (centres undefined), for which the EC50 was greater than 200 µM and the half-inhibitory concentration (IC50) is greater than 200 µM.
As to `Oc1ccc(Cl)cc1-c1nc2ccccc2s1`, the EC50 was greater than 138 µM and the half-maximal inhibitory concentration (IC50) was 75.9 µM.
For `Cn1c(=O)c2nc3sc4c(n3c2n(C)c1=O)C(=O)c1ccccc1C4=O`, the EC50 was greater than 14.1 µM and the IC50 was greater than 14.1 µM.
As for `COc1ccc2nc3cc(Cl)ccc3c(NCCC(=O)OCC(O)C(O)C(O[C@H](C)C(=O)NC(C)C(=O)NC(CCC(N)=O)C(=O)OCc3ccccc3)C(C=O)NC(C)=O)c2c1` (some centres undefined), the EC50 was 0.955 µM and the IC50 stood at 4.68 µM.
With `O=C(O)CCCSC(=O)Nc1ccc(N=Nc2ccccc2)cc1`, the result was inactive.
Turning to `S=c1[nH]c(=S)c2cc(Sc3ccc4[nH]c(=S)[nH]c(=S)c4c3)ccc2[nH]1`, the EC50 is greater than 200 µM and the 50% inhibitory concentration (IC50) was greater than 200 µM.
With `CC(=O)OC1CC[C@@]2(C)C(C1)CC(OC(C)=O)[C@@H]1C2CC(OC(C)=O)[C@]2(C)C(C(C)CC=C(c3ccc(Cl)cc3)c3ccc(Cl)cc3)CCC12` (some centres undefined), the EC50 is greater than 200 µM and the half-inhibitory concentration (IC50) was 57.5 µM.
On the same counts, the results for `CC(=O)C(N=Nc1ccc(S(=O)(=O)Nc2ccccn2)cc1)C(=O)Nc1ccccc1C` (centres undefined) are greater than 200 µM and 4.57 µM.
As to `C=CCOCn1cc(C)c(=O)[nH]c1=O`, the EC50 was greater than 200 µM and the IC50 was greater than 200 µM.
Consider `S=P(c1ccccc1)(N1CCCCC1)N1CCCCC1`, for which the EC50 was greater than 43.7 µM and the IC50 was greater than 43.7 µM.
As for `CCOC(=O)C1(C)C(=O)CC2c3nc4ccccc4cc3CN2C1=O` (centres undefined), the EC50 is greater than 10 µM and the half-maximal inhibitory concentration (IC50) was greater than 10 µM.
For the compound `O=C1OC2C(O)COC23OC(O)CCC13O` (centres undefined), the EC50 was greater than 200 µM and the 50% inhibitory concentration (IC50) is greater than 200 µM.
For the compound `O=C(NCCNCCCNC(=O)c1cc(-c2ccccc2)nc2ccccc12)c1cccc(OCc2ccccc2)c1OCc1ccccc1`, the EC50 was greater than 200 µM and the half-maximal inhibitory concentration (IC50) was 1.1 µM.
On the same counts, the results for `O=S1(=O)C2CCCC1C(Cl)CC2` (centres undefined) are greater than 47.9 µM and greater than 47.9 µM.
On the same counts, the results for `Cc1cccc2c1Oc1cc(Cl)ccc1C2NC(=O)CCN1CCN(CCO)CC1` (centres undefined) are greater than 200 µM and 13.5 µM.
Take `[B-][N+]1(C)CC[N+]([B-])(C)CC1` (centres undefined): the EC50 is greater than 200 µM and the half-maximal inhibitory concentration (IC50) is greater than 200 µM.
Consider `O=S(=O)(SSS(=O)(=O)c1ccccc1)c1ccccc1`, for which the EC50 is greater than 75.9 µM and the IC50 was greater than 75.9 µM.
In the case of `OC[C@@H]1C(O)[C@H](O)[C@H]2C(O)CCN12` (some centres undefined), the EC50 is greater than 1320 µM and the IC50 is greater than 1320 µM.
Turning to `NC(=O)C1CCCN1C(=O)N(CCCl)N=O` (centres undefined), the EC50 is greater than 200 µM and the IC50 was greater than 200 µM.
Turning to `O=c1c(C=Nc2ccccc2Cl)c(O)n(-c2ccccc2)c(=O)n1-c1ccccc1`, the result was inactive.
In the case of `CN(C)c1n2c3ccc([N+](=O)[O-])cc3n3c(N(C)C)[n+]4ccccc4c3c2c2cccc[n+]12`, the EC50 was greater than 200 µM and the 50% inhibitory concentration (IC50) was found to be 89.1 µM.
For the compound `O=C1N2Cc3c4ccc5c3CN3C(=O)N6Cc7c(ccc(c7CN1C6(c1ccccc1)C23c1ccccc1)OCCOCCNCCOCCO4)OCCOCCNCCOCCO5` (centres undefined), the EC50 is greater than 6.03 µM and the half-inhibitory concentration (IC50) was greater than 6.03 µM.
`C=CC1=CC(C)C[C@]1(O)C(=O)OC` (some centres undefined): the EC50 is greater than 1380 µM and the IC50 was determined as 708 µM.
For the compound `CCC1(Br)C(=O)NC(=O)NC1=O`, the EC50 is 42.7 µM and the half-inhibitory concentration (IC50) is 115 µM.
On the same counts, the results for `CCC1=C(C)c2cc3[n-]c(cc4nc(c(C=O)c5[n-]c(cc1n2)c(C)c5CC)C(C)=C4CC)c(C)c3CC.[Ni+2]` are greater than 50.1 µM and greater than 50.1 µM.
For `O=C(O)c1nc2sc(C(=O)O)nc2s1`, the result was inactive.
Consider `CC(=O)OC1COC(OC2CC3(C)C4CC=C5C(C=C(O)CC5(C)C)[C@]4(C)CC[C@]3(C)C2C(C)(O)C(=O)/C=C/C(C)(C)O)C(OC(C)=O)C1O` (some centres undefined), for which the outcome was inactive.
With `CCOC(=O)C(=CN1CCNC1=S)C(=O)OCC`, the EC50 was greater than 200 µM and the concentration for half-maximal inhibition (IC50) is greater than 200 µM.
For `CS(=O)(=O)SCc1ccc([N+](=O)[O-])cc1`, the EC50 was greater than 145 µM and the half-maximal inhibitory concentration (IC50) is 20.4 µM.
With `COC(=O)[C@]1(C)CCC[C@@]2(C)C1CC[C@]13C=C(C(C)C)[C@H](CC21)CC3(Cl)C#N` (some centres undefined), the EC50 is greater than 200 µM and the IC50 was determined as 37.2 µM.
In the case of `CC(=O)SCC1OC(n2cc(C)c(=O)[nH]c2=O)CC1O` (centres undefined), the EC50 was greater than 200 µM and the IC50 is greater than 200 µM.
On to `CC(=O)OC1CCn2c1nc1cc([N+](=O)[O-])c(C)cc12` (centres undefined), for which the EC50 was greater than 200 µM and the concentration for half-maximal inhibition (IC50) is greater than 200 µM.
As for `O=C(CBr)N1CCC2(CC1)SSC1(CCN(C(=O)CBr)CC1)S2`, the EC50 was greater than 200 µM and the IC50 was 0.575 µM.
As for `O=c1[nH]c(=O)n(C2CC(O)C(CO)O2)c2nc3cc4ccccc4cc3nc12` (centres undefined), the EC50 is greater than 200 µM and the concentration for half-maximal inhibition (IC50) was greater than 200 µM.
As to `CC(=O)N=C1N(/C=C2\C(=O)Oc3ccccc3C2=O)C(=O)/C(=C/c2ccc3c(c2)OCO3)N1C`, the EC50 is greater than 200 µM and the IC50 is greater than 200 µM.
On to `COC(OC)/C(C)=N/NC1=Nc2ccc(Cl)cc2C(c2ccccc2Cl)=NC1`, for which the EC50 was greater than 12.3 µM and the IC50 was greater than 12.3 µM.
Consider `COc1ccc(/C=C/c2nc3ccccc3nc2/C=C/c2ccc(OC)c(OC)c2)cc1OC`, for which the EC50 is greater than 100 µM and the IC50 was greater than 100 µM.
`Cc1nc2c(=O)[nH]cnc2o1`: the EC50 was greater than 575 µM and the IC50 was greater than 575 µM.
